Assay results reported in PMC3056285 (Bioorganic & medicinal chemistry, 2011).

What was measured:
[1] = In vivo metabolite analysis in rat brain; parameters: species or system Sprague-Dawley rats; details: HPLC radioactivity
[2] = In vivo metabolite analysis in rat plasma; parameters: species or system Sprague-Dawley rats; details: HPLC radioactivity
[3] = Biodistribution of [^11C]MP-10 in rats; format: in vivo, Sprague-Dawley rats; details: male rats, tail vein injection
PDE10A = experiment: MicroPET imaging studies in rhesus monkeys; format: in vivo; details: male rhesus monkeys
[4] = 2 min post injection of [^11C]MP-10
[5] = 20 min post injection of [^11C]MP-10
[6] = 40 min post injection of [^11C]MP-10
[7] = 60 min post injection of [^11C]MP-10

[11CH3]n1cc(-c2ccncc2)c(-c2ccc(O)cc2)n1 [metabolite #1, 4-(1-[^11C]methyl-4-(pyridin-4-yl)-1H-pyrazol-3-yl)phenol]
% Peak #1, Brain Tissue [1, 4]: 1.03%
% Peak #1, Brain Tissue [1, 5]: 3.45%
% Peak #1, Brain Tissue [1, 6]: 11.47%
% Peak #1, Brain Tissue [1, 7]: 15.87%
% Peak #1, Plasma [2, 4]: 1.23%
% Peak #1, Plasma [2, 5]: 19.13%
% Peak #1, Plasma [2, 6]: 35.19%
% Peak #1, Plasma [2, 7]: 40.72%

[11CH3]n1cc(-c2ccncc2)c(-c2ccc(OCc3ccc4ccccc4n3)cc2)n1 [[^11C]MP-10, 2-((4-(1-[^11C]methyl-4-(pyridin-4-yl)-1H-pyrazol-3-yl)phenoxy)methyl)-quinoline]
Biodistribution Blood ([3]; 5 min): 0.123 ± 0.033 ID%/gram
Biodistribution Cerebellum ([3]; 5 min): 0.133 ± 0.023 ID%/gram
Biodistribution Cortex ([3]; 5 min): 0.133 ± 0.025 ID%/gram
Biodistribution Fat ([3]; 5 min): 0.124 ± 0.059 ID%/gram
Biodistribution Heart ([3]; 5 min): 0.264 ± 0.080 ID%/gram
Biodistribution Hippocampus ([3]; 5 min): 0.169 ± 0.049 ID%/gram
Biodistribution Liver ([3]; 5 min): 2.766 ± 0.350 ID%/gram
Biodistribution Lung ([3]; 5 min): 0.317 ± 0.037 ID%/gram
Biodistribution Muscle ([3]; 5 min): 0.093 ± 0.021 ID%/gram
Biodistribution Striatum ([3]; 5 min): 0.300 ± 0.094 ID%/gram
Biodistribution Testes ([3]; 5 min): 0.160 ± 0.048 ID%/gram
Biodistribution Total brain ([3]; 5 min): 0.162 ± 0.025 ID%/gram
Biodistribution Blood ([3]; 30 min): 0.065 ± 0.016 ID%/gram
Biodistribution Cerebellum ([3]; 30 min): 0.036 ± 0.003 ID%/gram
Biodistribution Cortex ([3]; 30 min): 0.044 ± 0.009 ID%/gram
Biodistribution Fat ([3]; 30 min): 0.075 ± 0.020 ID%/gram
Biodistribution Heart ([3]; 30 min): 0.102 ± 0.041 ID%/gram
Biodistribution Hippocampus ([3]; 30 min): 0.050 ± 0.010 ID%/gram
Biodistribution Kidney ([3]; 30 min): 0.366 ± 0.075 ID%/gram
Biodistribution Liver ([3]; 30 min): 3.395 ± 0.448 ID%/gram
Biodistribution Lung ([3]; 30 min): 0.155 ± 0.053 ID%/gram
Biodistribution Muscle ([3]; 30 min): 0.059 ± 0.010 ID%/gram
Biodistribution Striatum ([3]; 30 min): 0.236 ± 0.035 ID%/gram
Biodistribution Testes ([3]; 30 min): 0.098 ± 0.006 ID%/gram
Biodistribution Total brain ([3]; 30 min): 0.066 ± 0.008 ID%/gram
Biodistribution Blood ([3]; 60 min): 0.047 ± 0.012 ID%/gram
Biodistribution Cerebellum ([3]; 60 min): 0.035 ± 0.003 ID%/gram
Biodistribution Cortex ([3]; 60 min): 0.044 ± 0.014 ID%/gram
Biodistribution Fat ([3]; 60 min): 0.100 ± 0.013 ID%/gram
Biodistribution Heart ([3]; 60 min): 0.068 ± 0.023 ID%/gram
Biodistribution Hippocampus ([3]; 60 min): 0.051 ± 0.009 ID%/gram
Biodistribution Kidney ([3]; 60 min): 0.314 ± 0.060 ID%/gram
Biodistribution Liver ([3]; 60 min): 3.364 ± 0.613 ID%/gram
Biodistribution Lung ([3]; 60 min): 0.090 ± 0.012 ID%/gram
Biodistribution Muscle ([3]; 60 min): 0.039 ± 0.011 ID%/gram
Biodistribution Striatum ([3]; 60 min): 0.164 ± 0.036 ID%/gram
Biodistribution Testes ([3]; 60 min): 0.068 ± 0.021 ID%/gram
Biodistribution Total brain ([3]; 60 min): 0.056 ± 0.006 ID%/gram
blood brain barrier penetration (PDE10A): can readily penetrate the blood brain barrier
